Results published in patent US9751842B2, “Phthalazine derivatives” (Merck Patent GmbH, priority 2013, dated 2017).

Key:
[1] = target: T1, GST-tagged Tnks-1 (1023-1327 aa) (Homo sapiens, UniProt O95271); assay: TNKS1 activity ELISA (autoparsylation); format: biochemical; conditions: activity ELISA, 1 hour at 30° C; read-out: IC50 TNKS1 ELISA
T1 construct: GST-tagged Tnks-1 (1023-1327 aa, prepared in-house); made in house
Experimental: (§1) Description of the TNKS1 and TNKS2 ELISA Assay
(§2) Biochemical Activity Testing of TNKS 1 and 2: Activity ELISA (Autoparsylation Assay)
(§3) For analysis of autoparsylation activity of TNKS 1 and 2 an activity ELISA is performed: In the first step GST tagged TNKS is captured on a Glutathione coated plate. Then the activity assay with biotinylated NAD is performed in the absence/presence of the compounds. During the enzymatic reaction GST tagged TNKS transfers biotinylated ADP-ribose to itself from biotinylated NAD as co-substrate. For the detection streptavidin-HRP conjugate is added that binds to the biotinylated TNKS and is thereby captured to the plates. The amount of biotinylated resp. autoparsylated TNKS is detected with a luminescence substrate for HRP. The level of the luminescence signal correlates directly with the amount of autoparsylated TNKS and therefore with activity of TNKS.
(§4) The activity ELISA is performed in 384 well Glutathione coated microtiter plates (Express capture Glutathione coated plate, Biocat, Heidelberg, Germany). The plates are pre-equilibrated with PBS. Then the plates are incubated with 50 μl 20 ng/well GST-tagged Tnks-1 (1023-1327 aa, prepared in-house), respectively GST-tagged Tnks-2 (873-1166 aa, prepared in-house) in assay buffer (50 mM HEPES, 4 mM Mg-chloride, 0.05% Pluronic F-68, 2 mM DTT, pH 7.7) overnight at 4° C. The plates are washed 3 times with PBS-Tween-20. The wells are blocked by incubation at room temperature for 20 minutes with 50 μl blocking buffer (PBS, 0.05% Tween-20, 0.5% BSA). Afterwards the plates are washed 3 times with PBS-Tween-20. The enzymatic reaction is performed in 50 μl reaction solution (50 mM HEPES, 4 mM Mg-chloride, 0.05% Pluronic F-68, 1.4 mM DTT, 0.5% DMSO, pH 7.7) with 10 μM bio-NAD (Biolog, Life science Inst., Bremen, Germany) as co-substrate in the absence or presence of the test compound (10 dilution concentrations) for 1 hour at 30° C. The reaction is stopped by 3 times washing with PBS-Tween-20. For the detection 50 μl of 20 ng/μl Streptavidin, HRP conjugate (MoBiTec, Göttingen, Germany) in PBS/0.05% Tween-20/0.01% BSA are added and the plates are incubated for 30 minutes at room temperature. After three times washing with PBS-Tween-20 50 μl of SuperSignal ELISA Femto Maximum sensitivity substrate solution (ThermoFisherScientific (Pierce), Bonn, Germany) are added. Following a 1 minute incubation at room temperature luminescence signals are measured with an Envision multimode reader (Perkin Elmer LAS Germany GmbH) at 700 nm. The full value used is the inhibitor-free reaction. The pharmacological zero value used is XAV-939 (Tocris) in a final concentration of 5 μM. The inhibitory values (IC50) are determined using either the program Symyx Assay Explorer® or Condosseo® from GeneData.

[2] = target: T2, GST-tagged Tnks-2 (873-1166 aa) (Homo sapiens, UniProt Q9H2K2); assay: TNKS2 activity ELISA (autoparsylation); format: biochemical; conditions: activity ELISA, 1 hour at 30° C; read-out: IC50 TNKS2 ELISA
T2 construct: GST-tagged Tnks-2 (873-1166 aa, prepared in-house); made in house
Experimental: as §1, §2, §3, §4

T1 sequence (O95271 1023-1327): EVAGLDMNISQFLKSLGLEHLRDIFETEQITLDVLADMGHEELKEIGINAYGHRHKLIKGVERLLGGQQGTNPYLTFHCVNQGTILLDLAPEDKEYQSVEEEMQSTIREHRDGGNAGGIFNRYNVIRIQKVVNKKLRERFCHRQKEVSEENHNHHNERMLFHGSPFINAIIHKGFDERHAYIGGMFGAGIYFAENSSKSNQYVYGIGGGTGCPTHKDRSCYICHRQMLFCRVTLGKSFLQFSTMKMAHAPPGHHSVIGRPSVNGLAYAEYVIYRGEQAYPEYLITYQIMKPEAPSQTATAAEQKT
T2 sequence (Q9H2K2 873-1166): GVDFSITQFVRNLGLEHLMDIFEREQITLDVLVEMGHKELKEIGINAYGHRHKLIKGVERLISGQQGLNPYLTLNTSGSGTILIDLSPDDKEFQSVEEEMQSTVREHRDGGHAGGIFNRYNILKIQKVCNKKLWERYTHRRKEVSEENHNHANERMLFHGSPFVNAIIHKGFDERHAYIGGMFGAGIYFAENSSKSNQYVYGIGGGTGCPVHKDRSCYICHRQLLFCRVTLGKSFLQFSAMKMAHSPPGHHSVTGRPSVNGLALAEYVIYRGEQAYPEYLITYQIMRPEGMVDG

SMILES	IC50 [1] [nM]	IC50 [2] [nM]
O=C(Cc1ccccc1)Nc1nncc2ccccc12 [Compound A1, 2-phenyl-N-phthalazin-1-yl-acetamide]	< 300	300 to 3000
COc1cccc(CC(=O)Nc2nncc3ccccc23)c1 [Compound A2, 2-(3-methoxyphenyl)-N-phthalazin-1-yl-acetamide]	300 to 3000	300 to 3000
COc1ccc(CC(=O)Nc2nncc3ccccc23)cc1 [Compound A3, 2-(4-methoxyphenyl)-N-phthalazin-1-yl-acetamide]	< 300	< 300
CCOc1ccc(CC(=O)Nc2nncc3ccccc23)cc1 [Compound A4, 2-(4-ethoxyphenyl)-N-phthalazin-1-yl-acetamide]	< 300	< 300
O=C(CCC1CCCC1)Nc1nncc2ccccc12 [Compound A15, 3-cyclopentyl-N-phthalazin-1-yl-propionamide]	< 300	< 300
O=C(CCc1ccccc1Cl)Nc1nncc2ccccc12 [Compound A16, 3-(2-chloro-phenyl)-N-phthalazin-1-yl-propionamide]	< 300	< 300
Cc1cccc2cnnc(NC(=O)Cc3ccccc3)c12 [Compound A18, N-(8-methyl-phthalazin-1-yl)-2-phenyl-acetamide]	< 300	< 300
COc1ccc(CC(=O)Nc2nncc3cccc(C)c23)cc1 [Compound A20, 2-(4-methoxy-phenyl)-N-(8-methyl-phthalazin-1-yl)-acetamide]	< 300	< 300
